{"source": "patent EP4624457A1", "about": "“I[…] DERIVATIVES, I[…] NEURODEGENERATIVE DISEASES” (Centre National de la Recherche Scientifique, priority 2024, dated 2025)", "key": {"cancer cell lines": {"system": "cancer cell lines", "conditions": "literature (Tang et al. 2023; Fribley et al. 2019); cited from earlier work"}, "[1]": {"biological_target": "T1, neuronal α3β2 nAChR subtype (Rattus norvegicus, UniProt P04757+P12390)", "T1 construct": "expressed in transfected cells; host or cells: Xenopus laevis oocytes injected with mRNA", "T1 sequence (P12390 25-500)": "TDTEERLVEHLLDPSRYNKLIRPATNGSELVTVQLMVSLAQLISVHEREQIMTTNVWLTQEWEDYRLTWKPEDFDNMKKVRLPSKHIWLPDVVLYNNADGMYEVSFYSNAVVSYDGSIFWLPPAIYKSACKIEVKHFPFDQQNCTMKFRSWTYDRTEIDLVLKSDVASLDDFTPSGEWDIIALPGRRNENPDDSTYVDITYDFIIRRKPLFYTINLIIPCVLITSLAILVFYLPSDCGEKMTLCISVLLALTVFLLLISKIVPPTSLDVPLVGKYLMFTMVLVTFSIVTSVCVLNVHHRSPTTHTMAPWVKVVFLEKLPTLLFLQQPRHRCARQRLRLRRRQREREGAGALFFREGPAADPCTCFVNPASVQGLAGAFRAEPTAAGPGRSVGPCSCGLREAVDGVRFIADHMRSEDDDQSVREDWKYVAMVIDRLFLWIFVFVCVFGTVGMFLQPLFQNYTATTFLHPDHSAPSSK", "T1 sequence (P04757 26-499)": "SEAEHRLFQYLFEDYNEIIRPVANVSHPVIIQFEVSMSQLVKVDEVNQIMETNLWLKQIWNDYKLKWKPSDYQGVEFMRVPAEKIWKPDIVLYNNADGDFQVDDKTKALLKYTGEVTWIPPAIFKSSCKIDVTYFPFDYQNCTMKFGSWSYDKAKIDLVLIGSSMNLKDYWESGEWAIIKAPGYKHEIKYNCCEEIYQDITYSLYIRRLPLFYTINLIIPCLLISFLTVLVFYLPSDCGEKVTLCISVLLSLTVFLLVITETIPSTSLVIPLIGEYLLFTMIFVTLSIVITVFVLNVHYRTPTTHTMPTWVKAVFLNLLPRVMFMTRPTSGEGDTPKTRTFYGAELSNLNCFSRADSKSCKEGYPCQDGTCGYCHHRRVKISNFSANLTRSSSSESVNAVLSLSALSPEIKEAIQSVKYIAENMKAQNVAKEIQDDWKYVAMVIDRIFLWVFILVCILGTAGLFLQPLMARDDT", "assay": "Two-electrode voltage clamp electrophysiology on Xenopus laevis oocytes expressing the α3β2 nAChR", "type": "cell-based", "conditions": "portimine 100 nM - 1 mM for 45 seconds; stated for the three nAChR subtypes tested", "description": "• Figure 1 represents the chemical structure of ingrilimine according to compound (Illa) formula. • Figure 2 represents the cytotoxic activity of ingrilimine. A2780 ovarian and HT29 colorectal carcinoma cells were grown in RPMI 1640 supplemented with 10% fetal calf serum (FCS) and 1% glutamine. U87-MG glioblastoma cells were grown in Dulbecco minimal essential medium containing 4.5 g/L glucose, 10% FCS and 1% glutamine at 37 °C in a humidified atmosphere containing 5% CO2. For IC50 determination, the cells were seeded in 96-well plates (3 × 10^3 cells/well) containing 90 µL of growth medium. After 24 h of culture, the cells were treated with ingrilimine at 10 different final concentrations. Cell viability was determined by luminescence after 72 h incubation. (a) Effect of ingrilimine on A2780 ovarian carcinoma cells. (b) Effect of ingrilimine on U87-MG glioblastoma cells. […] Sector Q normal cells that accumulated the JC-1 dye (fluorescence emission 590 nm). […] Changes in fluorescence emission were recorded by flow cytometry using the JC-1 mithocondrial membrane potential-dependent fluorescent dye. […] Phosphatidylcholine exposure in A2780 cell was quantified by flow cytometry using FITC-Annexin V. Dead or necrotic cells were detected using the vital dye propridium iodide. […]"}}}
{"compound": "C=CC1=C[C@@H]2[C@@H]3O[C@]4(CC[C@H](O4)[C@@H](C)C[C@@H](O)C3=O)C[C@H](O)C3=NCC[C@@]32CC1", "note": "[Portimine-A]", "values": [{"measurement": "cytotoxic activities, order of magnitude", "setting": "cancer cell lines", "value": "~10^-9 M"}, {"measurement": "inhibition of the acetylcholine-evoked current, concentration range", "setting": "[1]", "value": "micromolar range"}]}
